According to PMC4138103 (PLoS ONE, 2014):
Like-named read-outs stand apart in the source and are kept apart here.

System: Sprague-Dawley rats
Experiment: Retinoid analyses in liver, serum and kidney
Assay type: in vivo, Rattus norvegicus
Set-up: key to Kidney Retinyl esters, Dose response / Liver All-trans RA, Dose response / Kidney All-trans RA, Dose response / Serum Retinol, Dose response: D: significant dose response (for results, see Table 2); T: significant trend
Conditions: for Emax: Rattus norvegicus; for Kidney All-trans RA / Kidney Retinol / Kidney Retinyl esters / Liver 9-cis-4o-13,14-dh RA / Liver All-trans RA / Liver Retinol / Liver Retinyl esters: group mean, N=5
Description: Retinoids in liver, serum, and kidney were analyzed according to Schmidt et al.. The polar retinoids 9-cis-retinoic acid (9-cis-RA), 13-cis-retinoic acid (13-cis-RA), 13-cis-4-oxo-retinoic acid (13-cis-4-o-RA), 9-cis-4-oxo-13,14-dihydro-retinoic acid (9-cis-4-o-13,14-dh-RA), all-trans retinoic acid (all-trans RA) and the apolar retinoids retinol and retinyl palmitate were extracted by a single liquid-extraction, separated from each other via solid-phase extraction using an aminopropyl phase, and then injected onto two different HPLC systems that were coupled with UV detection. […] The limits of detection (LOD) for all-trans RA and 9c-4o-13,14-dh-RA were 0.7 and 1.0 pmol/g tissue, and 0.3 and 0.6 pmol/ml serum, respectively. Retinol and retinyl palmitate were separated on a J'sphere ODS-H80 (4.6×150 mm, 4 µm particle size) obtained from YMC (Schermbeck, Germany), and were detected at 325 nm. The LOD for retinol and retinyl palmitate were 5.6 and 5.5 pmol/g tissue, and 4.2 and 4.2 pmol/ml serum, respectively.
Data were also analyzed using the BMD method, which is based on dose-response modeling of the full data set using a nested family of exponential and Hill models. The analyses were done on data of males and females combined, using sex as a covariate. […] In that case, different Critical Effect Doses (CEDs) and CEDs at the lowest bound of the confidence interval (CED-L) were generated for each sex. If no difference between sexes is detected, a CED and CED-Ls for the combined data is generated. However, this was also done if the curve fits are close, and separate analyses for males and females were then performed manually. CEDs and CED-Ls were calculated at the predefined Critical Effect Size (CES) of 5% (EFSA standard) or 10%.

[1] = females, total dose 0-1700 mg/kg bw
[2] = females, total dose 10 mg/kg bw
[3] = females, total dose 30 mg/kg bw
[4] = females, total dose 100 mg/kg bw
[5] = females, total dose 300 mg/kg bw
[6] = females, total dose 1000 mg/kg bw
[7] = females, total dose 1700 mg/kg bw

Clc1cc(Cl)c(-c2cc(Cl)c(Cl)c(Cl)c2Cl)cc1Cl [PCB 180, 2,2′,3′,4,4′,5,5′-heptachlorobiphenyl]
Emax (F, model E4, controls vs high dose according to the fitted model, read-out: Maximum response, Liver 9c-4o-13,14-dh-RA amount): -70.3% | Emax (F, model E4, controls vs high dose according to the fitted model, read-out: Maximum response, Liver 9c-4o-13,14-dh-RA concentration): -78.2% | Emax (females, controls vs high dose, fitted model, read-out: Kidney all-trans RA amount, Maximum response): 16.5% | Emax (females, controls vs high dose, fitted model, read-out: Kidney all-trans RA concentration, Maximum response): 19.9% | Emax (females, controls vs high dose, fitted model, read-out: Kidney retinol amount, Maximum response): 26.9% | Emax (females, controls vs high dose, fitted model, read-out: Kidney retinol concentration, Maximum response): 27.8% | Emax (females, controls vs high dose, fitted model, read-out: Liver 9c-4o-13,14-dh-RA amount, Maximum response): -70.3% | Emax (females, controls vs high dose, fitted model, read-out: Liver 9c-4o-13,14-dh-RA conc., Maximum response): -78.2% | Emax (females, controls vs high dose, fitted model, read-out: Liver retinol concentration, Maximum response): -42.9% | Emax (females, controls vs high dose, fitted model, read-out: Liver retinyl esters amount, Maximum response): -29% | Emax (females, controls vs high dose, fitted model, read-out: Liver retinyl esters concentration, Maximum response): -50.9% | Emax (females, controls vs high dose, fitted model, read-out: Serum retinol concentration, Maximum response): 23% | Emax (males, controls vs high dose, fitted model, read-out: Kidney retinol amount, Maximum response): 50.4% | Emax (males, controls vs high dose, fitted model, read-out: Kidney retinol concentration, Maximum response): 52% | Emax (males, controls vs high dose, fitted model, read-out: Kidney retinyl esters amount, Maximum response): 260% | Emax (males, controls vs high dose, fitted model, read-out: Kidney retinyl esters concentration, Maximum response): 254% | Emax (males, controls vs high dose, fitted model, read-out: Liver all-trans RA amount, Maximum response): 93% | Emax (males, controls vs high dose, fitted model, read-out: Liver all-trans RA concentration, Maximum response): 21% | Emax (males, controls vs high dose, fitted model, read-out: Liver retinol amount, Maximum response): -18.1% | Emax (males, controls vs high dose, fitted model, read-out: Liver retinol concentration, Maximum response): -46.8% | Emax (males, controls vs high dose, fitted model, read-out: Liver retinyl esters amount, Maximum response): -45.2% | Emax (males, controls vs high dose, fitted model, read-out: Liver retinyl esters concentration, Maximum response): -62.8% | Emax (model E2, controls vs high dose according to the fitted model, read-out: Maximum response, Kidney retinol amount): 49% | Emax (model E2, controls vs high dose according to the fitted model, read-out: Maximum response, Kidney retinol concentration): 51.9% | Emax (model E2, controls vs high dose according to the fitted model, read-out: Maximum response, Liver all-trans RA amount): 92.7% | Emax (model E2, controls vs high dose according to the fitted model, read-out: Maximum response, Liver all-trans RA concentration): 20.7% | Emax (model E2, controls vs high dose according to the fitted model, read-out: Maximum response, Liver retinol amount): -18.5% | Emax (model E2, controls vs high dose according to the fitted model, read-out: Maximum response, Liver retinyl esters amount): -45.7% | Emax (model E4, controls vs high dose according to the fitted model, read-out: Maximum response, Kidney retinyl esters amount): 253% | Emax (model E4, controls vs high dose according to the fitted model, read-out: Maximum response, Kidney retinyl esters concentration): 256% | Emax (model E4, controls vs high dose according to the fitted model, read-out: Maximum response, Liver retinol concentration): -44.6% | Emax (model E4, controls vs high dose according to the fitted model, read-out: Maximum response, Liver retinyl esters concentration): -63.4% | Liver 9c-4o-13,14-dh-RA concentration, max. decrease (females): 78% | Liver retinol concentration, max. decrease (females): 43% | Dose response, Kidney All-trans RA [1]: D, T | Dose response, Kidney Retinol [1]: D, T | Dose response, Liver 9-cis-4o-13,14-dh RA [1]: D, T | Dose response, Liver Retinyl esters [1]: D, T | Kidney All-trans RA, Dose response [1]: D | Kidney Retinol, Dose response [1]: D, T | Liver 9-cis-4o-13,14-dh-RA, Dose response [1]: D, T | Liver Retinol, Dose response [1]: D, T | Liver Retinyl esters, Dose response [1]: D, T | Serum Retinol, Dose response [1]: D | Kidney All-trans RA (females, total dose 3 mg/kg bw): 19.8 pmol | Kidney Retinol (females, total dose 3 mg/kg bw): 8.72 nmol | Kidney Retinyl esters (females, total dose 3 mg/kg bw): 0.77 nmol | Liver 9-cis-4o-13,14-dh RA (females, total dose 3 mg/kg bw): 887 pmol | Liver All-trans RA (females, total dose 3 mg/kg bw): 267 pmol | Liver Retinol (females, total dose 3 mg/kg bw): 0.26 µmol | Liver Retinyl esters (females, total dose 3 mg/kg bw): 11.1 µmol | Kidney All-trans RA [2]: 18.2 pmol | Kidney Retinol [2]: 8.07 nmol | Kidney Retinyl esters [2]: 0.88 nmol | Liver 9-cis-4o-13,14-dh RA [2]: 665 pmol | Liver All-trans RA [2]: 239 pmol | Liver Retinol [2]: 0.23 µmol | Liver Retinyl esters [2]: 9.31 µmol | Kidney All-trans RA [3]: 19.9 pmol | Kidney Retinol [3]: 9.25 nmol | Kidney Retinyl esters [3]: 0.82 nmol | Liver 9-cis-4o-13,14-dh RA [3]: 691 pmol | Liver All-trans RA [3]: 231 pmol | Liver Retinol [3]: 0.25 µmol | Liver Retinyl esters [3]: 8.81 µmol | Kidney All-trans RA [4]: 20.6 pmol | Kidney Retinol [4]: 8.42 nmol | Kidney Retinyl esters [4]: 0.71 nmol | Liver 9-cis-4o-13,14-dh RA [4]: 543 pmol | Liver All-trans RA [4]: 252 pmol | Liver Retinol [4]: 0.24 µmol | Liver Retinyl esters [4]: 9.73 µmol | Kidney All-trans RA [5]: 20.2 pmol | Kidney Retinol [5]: 8.45 nmol | Kidney Retinyl esters [5]: 0.73 nmol | Liver 9-cis-4o-13,14-dh RA [5]: 357 pmol | Liver All-trans RA [5]: 332 pmol | Liver Retinol [5]: 0.24 µmol | Liver Retinyl esters [5]: 8.90 µmol | Kidney All-trans RA [6]: 21.5 pmol | Kidney Retinol [6]: 8.95 nmol | Kidney Retinyl esters [6]: 0.74 nmol | Liver 9-cis-4o-13,14-dh RA [6]: 226 pmol | Liver All-trans RA [6]: 296 pmol | Liver Retinol [6]: 0.24 µmol | Liver Retinyl esters [6]: 8.28 µmol | Kidney All-trans RA [7]: 22.0 pmol | Kidney Retinol [7]: 10.3 nmol | Kidney Retinyl esters [7]: 0.75 nmol | Liver 9-cis-4o-13,14-dh RA [7]: 261 pmol | Liver All-trans RA [7]: 289 pmol | Liver Retinol [7]: 0.21 µmol | Liver Retinyl esters [7]: 6.90 µmol | Kidney all-trans RA amount, CED (females, CES 5%, total dose based): 494 mg/kg bw
